Assay [1] is filed under the species Rattus norvegicus. Briefly: In vitro inhibition of norepinephrine (NE) uptake in crude rat brain synaptosomes. The class given is functional, organism-based.
The species entered for assay [2] is Rattus norvegicus. Briefly: In vitro inhibition of serotonin (5-HT) uptake in crude rat brain synaptosomes. It is filed as functional, organism-based.
The species named for assay [3] is Rattus norvegicus. As to the kind of experiment: In vitro inhibition of norepinephrine (NE) uptake in crude rat brain synaptosomes (% inhibition at maximum concentration).

pIC50: −log10 of the molar value.

As a reminder, the pIC50 is the negative decadic logarithm of the IC50, by convention in mol/L. Read a high pIC50 as a small IC50.

As for `NC12CCC(c3ccccc3)(CC1)CC2`, the pIC50 in the assay listed under Rattus norvegicus [1] was 7.10; in the assay filed under Rattus norvegicus [2], 7.02.
The like results for `CN[C@@H]1CCC(c2ccccc2)c2ccccc21` (stereo partly drawn) were, in that order, 7.74 and 6.08.
The matching figures for `NC12CCC(c3ccc(Br)cc3)(CC1)CC2`: 4.27 and 6.17.
`CNCCCOc1ccc(C(F)(F)F)cc1`: the pIC50 in the assay listed under Rattus norvegicus [1] is less than 5.00; in the assay listed under Rattus norvegicus [2] it was 5.52.
The like results for `CC(N)C(=O)OC(C)(C)Cc1ccc(Cl)cc1` (stereo not drawn) [ALAPROCLATE] were, in that order, less than 4.47 and 6.15.
The matching figures for `CNCC[C@@H](Oc1ccccc1C)c1ccccc1` [ATOMOXETINE]: 8.40 and 5.82.
The like results for `COc1ccc(OC[C@H]2CN(C)CC[C@@H]2c2ccccc2)cc1` [FEMOXETINE] were, in that order, 6.39 and 8.08.
For `CNCCC(Oc1ccc(C(F)(F)F)cc1)c1ccccc1` (stereo not drawn) [FLUOXETINE], the pIC50 in the assay listed under Rattus norvegicus [3] is less than 5.00; in the assay listed under Rattus norvegicus [2] it was 7.15.
For the compound `CNCCC(Oc1ccccc1OC)c1ccccc1` (stereo not drawn) [NISOXETINE], the pIC50 in the assay filed under Rattus norvegicus [1] was 8.00; in the assay listed under Rattus norvegicus [2] it was 5.70.
